Assay results as given in patent US4886667A, “External preparation composition” (priority 1985, dated 1989).
Values after ≈ are worked out from the molar mass of the structure shown. Where two headings read alike, the source gives them in different places.

Columns and labels:
[1] = test system: Trichophyton mentagrophytes IFO 5810; assay: Antifungal activity in vivo by trichophytosis of guinea pig; settings: 1% solution; for Fungal negativity index / Healing index: 0.1 ml once a day for 8 days, guinea pig trichophytosis
[2] = test system: Candida albicans ATCC 10261; assay: Minimum inhibitory concentration (MIC), agar dilution method, standard strains; settings: for MIC: ATCC10261, read-out: Minimum inhibitory concentration to standard strains; for Minimum inhibitory concentration to standard strains: yeast, Sabouraud medium
[3] = test system: Bacteroides fragilis RIMD 023001; assay: as above; format: cell-based; settings: 37° C., 60 hrs; for MIC: RIMD023001, anaerobic; for Minimum inhibitory concentration to standard strains: anaerobic
[4] = test system: Trichophyton rubrum IFO 5467; assay: as above; format: cell-based; settings: for MIC: read-out: Minimum inhibitory concentration to standard strains
[5] = test system: Trichophyton mentagrophytes IFO 5466; assay: as above; format: cell-based; settings: for MIC: read-out: Minimum inhibitory concentration to standard strains
[6] = test system: Staphylococcus aureus ATCC 6538P; assay: as above; settings: for MIC: Staphylococcus aureus, ATCC6538P, 48 h, read-out: Minimum inhibitory concentration to standard strains; for Minimum inhibitory concentration to standard strains: Staphylococcus aureus ATCC 6538P, aerobic, 37° C., 48 hrs
[7] = test system: Staphylococcus epidermidis ATCC 12228; assay: as above; settings: for MIC: Staphylococcus epidermidis, ATCC12228, 48 h, read-out: Minimum inhibitory concentration to standard strains; for Minimum inhibitory concentration to standard strains: Staphylococcus epidermidis ATCC 12228, aerobic, 37° C., 48 hrs
[8] = test system: Microsporum gypseum IFO 8231; assay: as above; format: cell-based; settings: for MIC: Nannizzia gypsea, read-out: Minimum inhibitory concentration to standard strains
[9] = test system: Fusobacterium nucleatum ATCC 25586; assay: as above; format: cell-based; settings: 37° C., 60 hrs; for MIC: ATCC25586, anaerobic
[10] = test system: Corynebacterium acnes ATCC 11828; assay: as above; format: cell-based; settings: for MIC: Cutibacterium acnes, read-out: Minimum inhibitory concentration to standard strains
[11] = test system: Staphylococcus pyogenes ATCC 10389; assay: as above; settings: aerobic, 37° C., 48 hrs
[12] = test system: Bacteroides fragilis (48 isolated strains); assay: MIC against clinically isolated strains (cumulation percent); format: cell-based; settings: for MIC: 60 h, read-out: range of effective concentration
[13] = test system: Clostridium perfringens (9 isolated strains); format: cell-based; settings: 9 isolated strains of clostridium perfringens
[14] = test system: clinically isolated anaerobic bacteria; format: cell-based; settings: 70 isolated strains of the tested bacteria
Acute toxicity in mice = settings: for LD50 / Mortalities (Dead/Treated): male mice; for LD50: 23040 min; for Mortalities (Dead/Treated): 16 days
[15] = IFO5467, Trichophyton rubrum IFO 5467, aerobic, 168 hrs
[16] = IFO5466, Trichophyton mentagrophytes IFO 5466, aerobic, 168 hrs
[17] = IFO8231, Microsporum gypseum IFO 8231, aerobic, 168 hrs
[18] = ATCC11828, Corynebacterium acnes ATCC 11828, anaerobic, 37° C., 60 hrs
[19] = 48 isolated strains of Bacteroides fragilis, 100% efficiency stated for Ratanhiaphenol

In the case of C[CH2][Hg][S]c1ccccc1C(=O)[O-].[Na+] [Thimerosal], the Fungal negativity index [1] is reported as 100% and the Healing index [1] is reported as 100%.
In the case of COC1=CC(=O)C[C@@H](C)[C@]12Oc1c(Cl)c(OC)cc(OC)c1C2=O [O, Griseofulvin], the MIC [2] is reported as greater than 1000 mg/L, the MIC [3] is reported as 200 mg/L (≈ 567 µM) and the MIC [4, 15] is reported as 6.25 mg/L (≈ 17.7 µM). The MIC [5, 16] was 6.25 mg/L (≈ 17.7 µM), the MIC [6] was greater than 1000 mg/L and the MIC [7] was greater than 1000 mg/L. The MIC [8, 17] was 6.25 mg/L (≈ 17.7 µM).
Work on CC1(C)S[C@@H]2[C@H](NC(=O)[C@H](NC(=O)c3cnc4cccnc4c3O)c3ccccc3)C(=O)N2[C@H]1C(=O)O [M, Apalcillin] yielded an MIC [3] of 50 mg/L (≈ 95.9 µM), an MIC [4, 15] greater than 1000 mg/L and an MIC [5, 16] greater than 1000 mg/L. For the same compound, the MIC [6] was 50 mg/L (≈ 95.9 µM), the MIC [7] was 25 mg/L (≈ 47.9 µM) and the MIC [8, 17] was greater than 1000 mg/L. It also gave an MIC [9] of 12.5 mg/L (≈ 24 µM) and an MIC [10, 18] of 25 mg/L (≈ 47.9 µM).
With Clc1ccccc1C(c1ccccc1)(c1ccccc1)n1ccnc1 [Clotrimazole] the Fungal negativity index [1] was 88% and the Healing index [1] was 60%.
For Cc1cc(O)ccc1C(C)C [N, Isopropylmethylphenol], the “Minimum inhibitory concentration to standard strains” value (from here on “Minimum inhibitory concentration”) [2] was 200 mg/L (≈ 1330 µM), the “Minimum inhibitory concentration” value [3] was 400 mg/L (≈ 2660 µM) and the “Minimum inhibitory concentration” value [6] was 400 mg/L (≈ 2660 µM). For the same compound, the “Minimum inhibitory concentration” value [7] was 200 mg/L (≈ 1330 µM) and the “Minimum inhibitory concentration” value [11] was 100 mg/L (≈ 666 µM).
Cc1cccc(N(C)C(=S)Oc2ccc3ccccc3c2)c1 [P, Tolnaftate] gave an MIC [2] greater than 1000 mg/L, an MIC [4, 15] of 0.1 mg/L (≈ 0.325 µM) and an MIC [5, 16] of 0.1 mg/L (≈ 0.325 µM). It also gave an MIC [6] greater than 1000 mg/L, an MIC [7] greater than 1000 mg/L and an MIC [8, 17] of 0.1 mg/L (≈ 0.325 µM). The MIC [9] was 200 mg/L (≈ 651 µM).
Compound CN(C)[C@@H]1C(=O)C(C(N)=O)=C(O)[C@@]2(O)C(=O)C3=C(O)c4c(O)cccc4[C@@](C)(O)[C@H]3C[C@@H]12 [R, Tetracycline] has an MIC ([12]; Bacteroides fragilis) of 1.56 to 400 mg/L (≈ 3.51 to 900 µM).
With CC1=C(C(=O)O)N2C(=O)[C@@H](NC(=O)[C@H](N)c3ccccc3)[C@H]2SC1 [S, Cefalexin] the MIC [12, 19] was 3.13 to 400 mg/L (≈ 9.01 to 1150 µM).
Compound CC1(C)S[C@@H]2[C@H](NC(=O)[C@H](C(=O)O)c3ccsc3)C(=O)N2[C@H]1C(=O)O [L, Ticarcillin] has an MIC [3] of 50 mg/L (≈ 130 µM), an MIC [4, 15] greater than 1000 mg/L and an MIC [5, 16] greater than 1000 mg/L. For the same compound, the MIC [6] was 3.13 mg/L (≈ 8.14 µM), the MIC [7] was 6.25 mg/L (≈ 16.3 µM) and the MIC [8, 17] was greater than 1000 mg/L. It also gave an MIC [9] of 6.25 mg/L (≈ 16.3 µM) and an MIC [10, 18] of 50 mg/L (≈ 130 µM).
With C=CCCCCCCCCC(=O)O [Q, Undecylenic acid] the MIC [2] was 200 mg/L (≈ 1090 µM), the MIC ([4]; Trichophyton rubrum, IFO5467, 168 h) was 12.5 mg/L (≈ 67.8 µM) and the MIC ([5]; Trichophyton mentagrophytes, IFO5466, 168 h) was 12.5 mg/L (≈ 67.8 µM). The MIC [6] was greater than 1000 mg/L, the MIC [7] was greater than 1000 mg/L and the MIC ([8]; IFO8231, 168 h) was 6.25 mg/L (≈ 33.9 µM). The MIC ([10]; ATCC11828, 60 h) was 400 mg/L (≈ 2170 µM).
In the case of Ratanhiaphenol [F], the “Minimum inhibitory concentration” value [2] is reported as greater than 10 mg/L, the “Minimum inhibitory concentration” value [3] is reported as 6.25 mg/L and the “range of effective concentration (100% efficiency)” value [13] is reported as 3.13 to 12.5 µg/mL. The “range of effective concentration (100% efficiency)” value [14] was 1.56 to 12.5 µg/mL, the “Minimum inhibitory concentration” value ([4]; Trichophyton rubrum IFO 5467, aerobic, 168 hrs) was 1.56 mg/L and the “Minimum inhibitory concentration” value ([5]; Trichophyton mentagrophytes IFO 5466, aerobic, 168 hrs) was 1.56 mg/L. The “Minimum inhibitory concentration” value [6] was 0.39 mg/L, the “Minimum inhibitory concentration” value [7] was 0.39 mg/L and the “Minimum inhibitory concentration” value [11] was 0.10 mg/L. For the same compound, the LD50 (Acute toxicity in mice; oral administration) was 5000 mg/kg, the toxicity (Acute toxicity in mice; oral or subcutaneous single dose, mice) was “low” and the abnormal sign (Acute toxicity in mice; oral or subcutaneous single dose, mice, 16 days observation) was “no abnormal sign was observed”. The “Mortalities (Dead/Treated)” value (Acute toxicity in mice; oral, 1 g/kg) was 0/5, the “Mortalities (Dead/Treated)” value (Acute toxicity in mice; oral, 5 g/kg) was 2/5 and the LD50 (Acute toxicity in mice; subcutaneous administration) was greater than 5000 mg/kg. For the same compound, the “Mortalities (Dead/Treated)” value (Acute toxicity in mice; subcutaneous, 1 g/kg) was 0/5, the “Mortalities (Dead/Treated)” value (Acute toxicity in mice; subcutaneous, 5 g/kg) was 0/5 and the “Minimum inhibitory concentration” value ([8]; Microsporum gypseum IFO 8231, aerobic, 168 hrs) was 0.78 mg/L. For the same compound, the “Minimum inhibitory concentration” value ([9]; anaerobic) was 6.25 mg/L, the “Minimum inhibitory concentration” value ([10]; Corynebacterium acnes ATCC 11828, anaerobic, 37° C., 60 hrs) was 6.25 mg/L and the “range of effective concentration” value [12, 19] was 1.56 to 6.25 µg/mL. For the same compound, the “healing effect compared with 1% clotrimazole solution” value [1] was “equivalent to that of 1% clotrimazole solution”, the Fungal negativity index [1] was 81% and the Healing index [1] was 67%.
